In US6593337B1, “Tricyclic compounds useful as HIV reverse transcriptase inhibitors” (Bristol-Myers Squibb Pharma Company, priority 1999, dated 2003):

melting point [°C] | SMILES
157 to 158 | CC(C)N(C)CC1(C(F)(F)F)c2cc(Cl)ccc2Nc2ncccc21 (stereo not drawn) [No. 93]
110 to 111 | CCN(CC)CC1(C(F)(F)F)c2cc(Cl)ccc2Nc2ncccc21 (stereo not drawn) [No. 94, 7-Chloro-5-(N,N-diethylaminomethyl)-5,10-dihydro-5-(trifluoromethyl)benzo[b][1,8]napthyridine]
137 to 138 | Fc1ccc2c(c1)C(OCC1CC1)(C(F)F)c1cccnc1N2 (stereo not drawn) [No. 180, 7-Fluoro-5-cyclopropylmethoxy-5-difluoromethyl-5,10-dihydro-benzo[b][1,8]naphthyridine]
148 to 149 | FC(F)C1(OCCC2CC2)c2cc(Cl)ccc2Nc2ncccc21 (stereo not drawn) [No. 181, 7-Chloro-5-(2-cyclopropyl-ethoxy)-5-difluoromethyl-5,10-dihydro-benzo[b][1,8]naphthyridine]
204 to 205 | FC(F)C1(Cc2ccccn2)c2cc(Cl)ccc2Nc2ncccc21 (stereo not drawn) [No. 182, 7-Chloro-5-pyridin-2-ylmethyl-5-difluoromethyl-5,10-dihydro-benzo[b][1,8]naphthyridine]
185 to 186 | [O-][n+]1cccc2c1Nc1ccc(Cl)cc1C2(OCC1CC1)C(F)F (stereo not drawn) [No. 184, 7-Chloro-5-cyclopropylmethoxy-5-difluoromethyl-5,10-dihydro-benzo[b][1,8]naphthyridine 1-oxide]
166 to 167 | [O-][n+]1cccc2c1Nc1ccc(F)cc1C2(OCC1CC1)C(F)F (stereo not drawn) [No. 185, 7-Fluoro-5-cyclopropylmethoxy-5-difluoromethyl-5,10-dihydro-benzo[b][1,8]naphthyridine 1-oxide]
175 to 176 | [O-][n+]1cccc2c1Nc1ccc(Cl)cc1C2(OCCC1CC1)C(F)F (stereo not drawn) [No. 186, 7—Chloro-5-(2-cyclopropyl-ethoxy)-5-difluoromethyl-5,10-dihydro-benzo[b][1,8]naphthyridine 1-oxide]
210 to 211 | [O-][n+]1cccc2c1Nc1ccc(Cl)cc1C2(Cc1ccccn1)C(F)F (stereo not drawn) [No. 187, 7—Chloro-5-pyridin-2-ylmethyl-5-difluoromethyl-5,10-dihydro-benzo[b][1,8]naphthyridine 1-oxide]
163 to 164 | [O-][n+]1cc(Cl)cc2c1Nc1ccc(Cl)cc1C2(OCC1CC1)C(F)F (stereo not drawn) [No. 188, 3,7-Dichloro-5-cyclopropylmethoxy-5-difluoromethyl-5,10-dihydro-benzo[b][1,8]naphthyridine 1-oxide]
68 to 69 | [O-][n+]1cccc2c1Nc1ncc(Cl)cc1C2(OCC1CC1)C(F)(F)F (stereo not drawn) [No. 201, 3-Chloro-10-cyclopropylmethoxy-10-trifluoromethyl-9,10-dihydro-1,8,9-triaza-anthracene 8-oxide]

SMILES | melting point [°C]
CC(C)COC1(C(F)(F)F)c2cccnc2Nc2ncc(Cl)cc21 (stereo not drawn) [No. 203, 3-Chloro-10-isobutoxy-10-trifluoromethyl-9,10-dihydro-1,8,9-triaza-anthracene] | 166 to 167
